According to patent US10670605B2, “Cysteine reactive probes and uses thereof” (The Scripps Research Institute, priority 2015, dated 2020):
Values belong to the molecule of their own block, whether it stands above or below them.

Key:
MLTK C22 (Q9NYL2) = MLTK C22 (Q9NYL2) (Homo sapiens, UniProt Q9NYL2); assay: Competitive isoTOP-ABPP, cell lysates; format: binding; settings: for R value (DMSO/fragment): in vitro, MDA-MB-231; for isoTOP-ABPP ratio Q9NYL2_C22: invitro, 231; for isoTOP-ABPP ratio (reactivity profile), Q9NYL2_C22: 500 μm in-vitro ramos_231
[1] = biological target: cysteines in MDA-MB-231 and Ramos cells (Homo sapiens, UniProt P46109); assay: Competitive isoTOP-ABPP in situ (fragment-treated cells); format: cell-based; settings: 200 μM, insitu
RRAGC C358 (Q9HB90) = RRAGC C358 (Q9HB90) (Homo sapiens, UniProt Q9HB90); assay: Competitive isoTOP-ABPP, cell lysates; format: binding; settings: for isoTOP-ABPP ratio, Q9HB90_C358: 231; for isoTOP-ABPP ratio (reactivity profile), Q9HB90_C358: 500 μm in-vitro ramos_231
USP28 C171 (Q96RU2) = biological target: T1, USP28 C171 (Q96RU2) (Homo sapiens, UniProt Q96RU2); assay: Competitive isoTOP-ABPP, cell lysates; format: binding; settings: for R value (DMSO/fragment) / isoTOP-ABPP ratio, Q96RU2_C171: 500 μM, invitro
T1 sequence (Q96RU2 1-1077): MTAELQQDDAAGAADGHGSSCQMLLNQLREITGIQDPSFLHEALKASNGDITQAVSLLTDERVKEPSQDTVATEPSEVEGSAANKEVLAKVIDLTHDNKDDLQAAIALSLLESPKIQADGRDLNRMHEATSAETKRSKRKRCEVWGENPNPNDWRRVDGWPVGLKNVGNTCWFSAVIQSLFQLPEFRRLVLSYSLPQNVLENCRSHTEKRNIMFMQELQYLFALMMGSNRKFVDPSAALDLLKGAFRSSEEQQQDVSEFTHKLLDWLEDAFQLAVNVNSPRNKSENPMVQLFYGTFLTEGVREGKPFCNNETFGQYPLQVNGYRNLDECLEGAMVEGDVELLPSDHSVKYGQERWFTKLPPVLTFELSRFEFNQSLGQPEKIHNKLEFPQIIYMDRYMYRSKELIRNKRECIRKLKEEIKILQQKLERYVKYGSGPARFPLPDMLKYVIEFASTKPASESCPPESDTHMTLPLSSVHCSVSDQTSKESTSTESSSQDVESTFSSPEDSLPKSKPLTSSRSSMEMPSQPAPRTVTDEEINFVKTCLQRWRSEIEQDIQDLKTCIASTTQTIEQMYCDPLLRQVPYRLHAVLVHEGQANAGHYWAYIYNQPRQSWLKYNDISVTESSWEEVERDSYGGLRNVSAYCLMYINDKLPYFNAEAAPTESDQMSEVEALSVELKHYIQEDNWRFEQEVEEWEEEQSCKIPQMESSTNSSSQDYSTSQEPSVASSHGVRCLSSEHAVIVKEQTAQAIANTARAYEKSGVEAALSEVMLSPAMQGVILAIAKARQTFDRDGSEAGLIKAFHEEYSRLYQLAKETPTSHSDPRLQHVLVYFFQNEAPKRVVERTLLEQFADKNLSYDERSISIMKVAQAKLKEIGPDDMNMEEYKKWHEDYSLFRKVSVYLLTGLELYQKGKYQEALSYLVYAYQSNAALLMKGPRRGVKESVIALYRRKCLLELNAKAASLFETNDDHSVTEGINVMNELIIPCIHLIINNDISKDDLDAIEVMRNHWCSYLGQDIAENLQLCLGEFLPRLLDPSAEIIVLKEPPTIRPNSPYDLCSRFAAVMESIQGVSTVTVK

O00541_C272 = O00541_C272 (Homo sapiens, UniProt O00541); assay: Competitive isoTOP-ABPP, cell lysates; format: binding
O00541_C272, sequence (O00541 whole entry, looked up): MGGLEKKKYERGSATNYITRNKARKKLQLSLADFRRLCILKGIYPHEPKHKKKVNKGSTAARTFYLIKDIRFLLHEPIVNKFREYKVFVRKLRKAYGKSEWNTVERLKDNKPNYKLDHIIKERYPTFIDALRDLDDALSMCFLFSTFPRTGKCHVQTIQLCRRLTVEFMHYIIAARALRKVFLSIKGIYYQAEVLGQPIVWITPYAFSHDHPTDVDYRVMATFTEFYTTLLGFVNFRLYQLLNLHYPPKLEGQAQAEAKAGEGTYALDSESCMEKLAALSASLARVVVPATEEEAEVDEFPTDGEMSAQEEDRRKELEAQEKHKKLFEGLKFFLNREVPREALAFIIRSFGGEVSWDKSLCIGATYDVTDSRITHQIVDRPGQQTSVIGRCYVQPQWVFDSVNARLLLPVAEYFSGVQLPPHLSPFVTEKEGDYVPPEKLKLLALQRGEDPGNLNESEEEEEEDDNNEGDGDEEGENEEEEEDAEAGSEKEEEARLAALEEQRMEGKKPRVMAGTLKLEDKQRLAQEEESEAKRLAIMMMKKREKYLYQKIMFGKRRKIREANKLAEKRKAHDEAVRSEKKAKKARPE

MLTK C22 (Q9NYL2), sequence (Q9NYL2 whole entry, the tested form may be a part): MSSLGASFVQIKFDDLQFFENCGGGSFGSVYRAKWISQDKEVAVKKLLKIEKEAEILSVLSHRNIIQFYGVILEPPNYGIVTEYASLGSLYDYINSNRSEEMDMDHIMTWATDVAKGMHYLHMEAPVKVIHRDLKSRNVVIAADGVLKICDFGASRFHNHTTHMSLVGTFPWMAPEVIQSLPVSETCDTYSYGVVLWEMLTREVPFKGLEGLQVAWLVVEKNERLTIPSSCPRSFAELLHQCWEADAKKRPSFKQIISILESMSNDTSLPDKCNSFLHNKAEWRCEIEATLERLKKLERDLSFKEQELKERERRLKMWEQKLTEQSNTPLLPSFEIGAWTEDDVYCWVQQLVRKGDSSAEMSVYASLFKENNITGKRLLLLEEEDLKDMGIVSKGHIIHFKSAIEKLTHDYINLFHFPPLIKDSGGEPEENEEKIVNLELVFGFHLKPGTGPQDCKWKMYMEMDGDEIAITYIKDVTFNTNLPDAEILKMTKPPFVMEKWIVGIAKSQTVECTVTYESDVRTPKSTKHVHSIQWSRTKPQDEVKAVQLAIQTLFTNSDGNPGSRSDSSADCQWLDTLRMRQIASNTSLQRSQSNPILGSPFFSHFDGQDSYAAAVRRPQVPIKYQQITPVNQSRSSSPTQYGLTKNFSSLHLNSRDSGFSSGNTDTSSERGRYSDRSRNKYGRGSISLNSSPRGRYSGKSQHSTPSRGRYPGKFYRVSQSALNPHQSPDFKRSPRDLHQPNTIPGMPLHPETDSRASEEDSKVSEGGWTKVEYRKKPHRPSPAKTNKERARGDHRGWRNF
RRAGC C358 (Q9HB90), sequence (Q9HB90 2-399 limits assumed): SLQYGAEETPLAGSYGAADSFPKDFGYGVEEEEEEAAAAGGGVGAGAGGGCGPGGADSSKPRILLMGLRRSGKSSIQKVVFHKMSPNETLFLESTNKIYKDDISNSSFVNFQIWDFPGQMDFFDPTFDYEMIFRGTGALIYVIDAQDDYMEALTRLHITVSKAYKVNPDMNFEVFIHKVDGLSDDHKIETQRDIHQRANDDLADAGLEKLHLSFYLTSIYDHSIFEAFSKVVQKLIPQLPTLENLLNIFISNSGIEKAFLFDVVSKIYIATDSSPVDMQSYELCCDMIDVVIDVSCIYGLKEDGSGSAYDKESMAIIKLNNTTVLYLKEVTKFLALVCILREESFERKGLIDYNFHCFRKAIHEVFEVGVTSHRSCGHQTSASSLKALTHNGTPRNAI
RRAGC C358 (Q9HB90), sequence (Q7L523 whole entry partner, the tested form may be a part): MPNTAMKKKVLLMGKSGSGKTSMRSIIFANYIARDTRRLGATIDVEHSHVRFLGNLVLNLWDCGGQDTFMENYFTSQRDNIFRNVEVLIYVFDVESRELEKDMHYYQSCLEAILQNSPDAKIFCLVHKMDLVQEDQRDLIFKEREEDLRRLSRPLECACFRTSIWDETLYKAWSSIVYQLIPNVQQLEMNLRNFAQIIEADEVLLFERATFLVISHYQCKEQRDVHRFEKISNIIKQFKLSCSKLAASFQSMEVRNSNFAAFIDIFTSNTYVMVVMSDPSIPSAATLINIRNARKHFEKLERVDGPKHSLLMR
cysteines in MDA-MB-231 and Ramos cells, sequence (P46109 whole entry, the tested form may be a part): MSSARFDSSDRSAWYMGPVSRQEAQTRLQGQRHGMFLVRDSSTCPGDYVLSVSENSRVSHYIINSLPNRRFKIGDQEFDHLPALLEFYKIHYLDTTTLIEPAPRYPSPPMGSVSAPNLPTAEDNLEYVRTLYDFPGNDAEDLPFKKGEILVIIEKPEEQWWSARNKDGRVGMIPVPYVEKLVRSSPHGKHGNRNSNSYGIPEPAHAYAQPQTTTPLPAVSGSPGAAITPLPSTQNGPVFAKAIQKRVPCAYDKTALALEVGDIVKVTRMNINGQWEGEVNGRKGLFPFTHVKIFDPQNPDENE

isoTOP-ABPP reactivity profile ratio, Q9NYL2_C22 (MLTK C22 (Q9NYL2); 500 μm, in-vitro_ramos_231): 0.8
SMILES: O=C(CCl)NC1C(O)OC(CO)C(O)C1O (mixture of isomers) [compound 44]

isoTOP-ABPP ratio P46109_C249 [1]; 231: 20.0
SMILES: O=C(CCl)NC(=O)NC12CC3CC(CC(C3)C1)C2 [compound 12]

isoTOP-ABPP ratio P46109_C249 ([1]; ramos): 1.8 | isoTOP-ABPP ratio, Q9HB90_C358 (RRAGC C358 (Q9HB90); 500 μM, invitro): 1.5 | isoTOP-ABPP ratio Q9NYL2_C22 (MLTK C22 (Q9NYL2); 500 μM): 5.2 | isoTOP-ABPP ratio, Q96RU2_C171 (USP28 C171 (Q96RU2); ramos): 2.4
SMILES: O=C(CCl)NCCc1c[nH]c2ccccc12 [compound 13]

isoTOP-ABPP ratio, Q9HB90_C358 (RRAGC C358 (Q9HB90); 500 μM, invitro): 1.1
SMILES: C=CC(=O)N(Cc1cccnc1)c1ccc(Oc2ccccc2)c(C(F)(F)F)c1 [compound 15]

isoTOP-ABPP ratio (reactivity profile), O00541_C272 (O00541_C272; 500 μm in-vitro ramos): 5.5 | isoTOP-ABPP ratio P46109_C249 [1]; 231: 0.9 | isoTOP-ABPP ratio (reactivity profile), Q9HB90_C358 (RRAGC C358 (Q9HB90)): 1.2 | isoTOP-ABPP ratio (reactivity profile), Q9NYL2_C22 (MLTK C22 (Q9NYL2)): 2.0 | isoTOP-ABPP ratio (reactivity profile), Q96RU2_C171 (USP28 C171 (Q96RU2); 500 μm in-vitro ramos_231): 1.1
SMILES: O=C(CCl)NC12CC3CC(CC(C3)C1)C2 [compound 21]

isoTOP-ABPP ratio (reactivity profile), O00541_C272 (O00541_C272; 500 μm in-vitro ramos): 2.0 | isoTOP-ABPP ratio (reactivity profile), Q9NYL2_C22 (MLTK C22 (Q9NYL2)): 1.4 | isoTOP-ABPP ratio (reactivity profile), Q96RU2_C171 (USP28 C171 (Q96RU2); 500 μm in-vitro ramos): 1.2
SMILES: N#C/C(=C\c1cc(C(F)(F)F)cc(C(F)(F)F)c1)C(N)=O [compound 23]

The remaining lines, values behind:

SMILES: COc1ccc2c(c1)CCCN2C(=O)CCl [compound 2]
isoTOP-ABPP reactivity P46109_0249 CRKL [1]; 231: 20.0 | R value (DMSO/fragment) (RRAGC C358 (Q9HB90); 500 μM, in vitro, MDA-MB-231): 20.0 | R value (DMSO/fragment) (RRAGC C358 (Q9HB90); 500 μM, invitro, ramos): 20.0 | R value (DMSO/fragment) (MLTK C22 (Q9NYL2); 500 μM): 20.0 | R value (DMSO/fragment) (USP28 C171 (Q96RU2); ramos): 1.1

SMILES: O=C(CCl)Nc1cc(C(F)(F)F)cc(C(F)(F)F)c1 [compound 3]
R value (DMSO/fragment) (RRAGC C358 (Q9HB90); 500 μM, in vitro, MDA-MB-231): 1.2 | R value (DMSO/fragment) (MLTK C22 (Q9NYL2); 500 μM): 1.8 | R value (DMSO/fragment) (USP28 C171 (Q96RU2); ramos): 1.7

SMILES: COc1ccc(C2CC(c3cccs3)=NN2C(=O)CCl)cc1 (stereo not shown) [compound 4]
R value (DMSO/fragment) (RRAGC C358 (Q9HB90); 250 μM, in vitro, MDA-MB-231): 1.5 | R value (DMSO/fragment) (MLTK C22 (Q9NYL2); 250 μM): 20.0

SMILES: C=CC(=O)N(c1ccccc1)c1ccc(Br)cc1 [compound 5]
isoTOP-ABPP ratio Q9NYL2_C22 (MLTK C22 (Q9NYL2); 500 μM): 20.0

SMILES: CNS(=O)(=O)C=Cc1ccc2c(ccn2Cc2ccccc2)c1 [compound 6]
isoTOP-ABPP ratio, Q9HB90_C358 (RRAGC C358 (Q9HB90); 500 μM, invitro): 1.2 | isoTOP-ABPP ratio, Q96RU2_C171 (USP28 C171 (Q96RU2); 231): 0.8

SMILES: O=C(CCl)N1CCC(Cc2ccccc2)CC1 [compound 9]
isoTOP-ABPP reactivity P46109_0249 CRKL [1]; 231: 6.7

SMILES: O=C(CCl)N1CCN(S(=O)(=O)c2ccccc2F)CC1 [compound 10]
isoTOP-ABPP ratio P46109_C249 [1]; 231: 20.0 | isoTOP-ABPP ratio, Q96RU2_C171 (USP28 C171 (Q96RU2); 231): 1.4

SMILES: Cn1cc(S(=O)(=O)N2CCOCC2)cc1C(=O)NC(=O)CCl [compound 11]
isoTOP-ABPP ratio, Q96RU2_C171 (USP28 C171 (Q96RU2); 231): 20.0

SMILES: O=C(CCl)N1CCC(C(O)(c2ccccc2)c2ccccc2)CC1 [compound 20]
isoTOP-ABPP ratio (reactivity profile), Q9NYL2_C22 (MLTK C22 (Q9NYL2)): 20.0 | isoTOP-ABPP ratio (reactivity profile), Q96RU2_C171 (USP28 C171 (Q96RU2); 500 μm in-vitro ramos): 2.4

SMILES: O=C(CCl)N1CCOCC1 [compound 22]
isoTOP-ABPP ratio (reactivity profile), O00541_C272 (O00541_C272; 500 μm in-vitro ramos_231): 1.6 | isoTOP-ABPP ratio (reactivity profile), Q9HB90_C358 (RRAGC C358 (Q9HB90)): 1.7 | isoTOP-ABPP ratio (reactivity profile), Q9NYL2_C22 (MLTK C22 (Q9NYL2)): 1.0
